Results as given in article PMC7956476, “Quinoline Functionalized Schiff Base Silver (I) Complexes: Interactions with Biomolecules and In Vitro Cytotoxicity, Antioxidant and Antimicrobial Activities” (Molecules, 2021).

Tests used:
Test in all cases: Cytotoxicity assay (CellTiter 96 AQueous One Solution, 72 h)
[1] = tested on: human embryonic kidney 293 (HEK293); type: cell-based; settings: normal cell line, n = 3, read-out: EC50 ± Std Dev (µM) HEK293
Method: (§1) In vitro cell viability with cultured cells is a method commonly used for cytotoxicity activities of potential anticancer compounds due to reduced cost speed, and potential for automation, and tests using human cells other than some in vivo animal tests. […] The cytotoxicity assay was conducted as per the standard method and as described by Abrahams et al. 2018 [111]. […] The plate was then incubated for 72 h at 37 °C and 5% CO2. To each well, 20 µL CellTiter 96 AQueous One Solution (Promega, Madison, WI, USA) was added and the plates were incubated for 4 h as previously described. Thereafter, absorbance was read at 490 nm on a multiplate reader (Molecular Devices, San Jose, CA, USA). […] The values recorded are averages of at least three separate experiments (n = 3).

[2] = tested on: neuronal cancer cell line (SHSY5Y); type: cell-based, human
Method: as §1

[3] = tested on: cervical cancer cell line (HELA); type: cell-based, human
Method: as §1

[4] = tested on: breast cancer cell line (MDA-MB231); type: cell-based, human
Method: as §1

Question: With `N.N.[Cl][Pt][Cl]` [Cisplatin, cisplatin, reference compound] as the compound, how does the EC50 [1] read?
Answer: 14.2 ± 3.8 µM

Question: And the EC50 ([2]; 72 h, n = 3, read-out: EC50 ± Std Dev (µM) SHSY5Y)?
Answer: 19.7 ± 3.77 µM

Question: What about the “Selectivity Index (SI) SHSY5Y” value ([2]; EC50 in HEK293 over EC50 in SHSY5Y) of the same compound?
Answer: 0.72

Question: And the EC50 ([3]; 72 h, n = 3, read-out: EC50 ± Std Dev (µM) HELA)?
Answer: > 50 µM

Question: And the “Selectivity Index (SI) HELA” value ([3]; EC50 in HEK293 over EC50 in HELA)?
Answer: 0.28

Question: What about the EC50 ([4]; 72 h, n = 3, read-out: EC50 ± Std Dev (µM) MDA-MB231) of the same compound?
Answer: 22.7 ± 4.89 µM

Question: And the “Selectivity Index (SI) MDA-MB231” value ([4]; EC50 in HEK293 over EC50 in MDA-MB231)?
Answer: 0.63
